The values that follow come from patent US7589123B2, “Chemical compounds” (Phytopharm PLC, priority 2006, dated 2009).

In series [1] the target is T1, TRPV1 receptor (Rattus norvegicus, UniProt O35433). In words: TRPV1 receptor modulation in the rat vas deferens, EFS-induced contraction (Assay 1). As to conditions: electrical field stimulation, read-out: Inhibition of EFS response relative to capsaicin. The method, then: Wistar derived male rats (275±25 g) were suppressed by CO2 overexposure. The vas deferens was removed, placed in Krebs solution, pH 7.4 (composition in g/l: NaCl 6.89, KCl 0.35, CaCl2 0.277, KH2PO4 0.163, MgSO4.7H2O 0.296, NaHCO3 2.1 glucose 1.8) and excess fat and connective tissue removed. The portion of the vas deferens closest to the prostate was cut in half and each half was placed under 1 g tension in a 10 ml bath containing Krebs solution at 32° C. The tissue was contracted by electrical field stimulation (EFS; 60% of maximum stimulation, 0.015 Hz, 0.5 ms in duration) and contractile responses were measured.
T1 sequence (O35433 whole entry): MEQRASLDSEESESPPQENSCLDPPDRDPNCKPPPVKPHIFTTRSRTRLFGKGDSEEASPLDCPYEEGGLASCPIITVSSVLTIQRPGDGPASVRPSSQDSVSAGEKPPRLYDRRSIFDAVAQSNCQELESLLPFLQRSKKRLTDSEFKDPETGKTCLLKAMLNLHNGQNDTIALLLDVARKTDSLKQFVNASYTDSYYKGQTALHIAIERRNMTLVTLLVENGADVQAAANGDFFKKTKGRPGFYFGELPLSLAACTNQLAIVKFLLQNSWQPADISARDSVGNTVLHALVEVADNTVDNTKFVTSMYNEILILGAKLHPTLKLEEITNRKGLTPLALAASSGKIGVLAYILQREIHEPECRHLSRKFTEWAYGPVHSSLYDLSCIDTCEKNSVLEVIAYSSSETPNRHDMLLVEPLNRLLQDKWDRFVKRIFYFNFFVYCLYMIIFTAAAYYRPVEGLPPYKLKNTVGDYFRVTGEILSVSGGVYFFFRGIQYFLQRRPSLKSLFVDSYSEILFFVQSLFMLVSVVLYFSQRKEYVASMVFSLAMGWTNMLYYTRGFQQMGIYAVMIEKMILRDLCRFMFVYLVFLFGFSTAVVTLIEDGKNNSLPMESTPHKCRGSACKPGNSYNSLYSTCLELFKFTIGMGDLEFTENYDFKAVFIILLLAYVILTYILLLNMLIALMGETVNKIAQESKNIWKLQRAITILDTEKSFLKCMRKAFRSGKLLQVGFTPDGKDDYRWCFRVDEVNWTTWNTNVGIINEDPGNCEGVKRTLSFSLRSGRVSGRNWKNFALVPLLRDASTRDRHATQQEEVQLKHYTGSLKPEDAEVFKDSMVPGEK

Series [2] relates to histamine-induced contractions in guinea pig ileum. In words: Inhibition of histamine-induced contractions in guinea pig ileum (Assay 3). As to conditions: Cavia porcellus, histamine 1.7 μM, read-out: Inhibition of histamine-induced contraction (%). The essentials: (§1)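 Ileal strips from male Duncan Hartley guinea pigs were held at 1 g tension in 32° C oxygenated Krebs (pH 7.4) with isotonic transducers. After control contractions to 5-HT (2.6 μM) or histamine (1.7 μM), compound at 3 and 30 μM was added, its own effect noted, and agonist re-applied.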

For series [3], the target named is T1, TRPV1 receptor. In words: TRPV1 modulation in DRG neurones: CGRP release in absence and presence of capsaicin (Assay 2). The format is cell-based. Also noted: The culture used for this experiment contained sensory neurones, Schwann cells and fibroblasts; endogenous in cells; host or cells: primary rat DRG sensory neurone culture (with Schwann cells and fibroblasts). As to conditions: 20 min; for inhibition at 3 µM: 3 μM with capsaicin 1 μM; for inhibition at 3 µM / inhibition at 30 µM: −ve: inhibition, +ve: potentiation of capsaicin response, read-out: Effect of test compounds on capsaicin (1 μM)-induced CGRP release (%); for inhibition at 30 µM: 30 μM with capsaicin 1 μM; for Emax at 3 µM: test compound alone 3 μM; for Emax at 3 µM / Emax at 30 µM: rat DRG sensory neurones, read-out: CGRP release (% of capsaicin (1 μM) response); for Emax at 30 µM: test compound alone 30 μM.

A further series addresses T2, 5-lipoxygenase (Homo sapiens, UniProt P09917).
T2 construct: endogenous in cells; host or cells: human peripheral blood mononuclear leukocytes (PBMLs)
T2 sequence (P09917 1-674): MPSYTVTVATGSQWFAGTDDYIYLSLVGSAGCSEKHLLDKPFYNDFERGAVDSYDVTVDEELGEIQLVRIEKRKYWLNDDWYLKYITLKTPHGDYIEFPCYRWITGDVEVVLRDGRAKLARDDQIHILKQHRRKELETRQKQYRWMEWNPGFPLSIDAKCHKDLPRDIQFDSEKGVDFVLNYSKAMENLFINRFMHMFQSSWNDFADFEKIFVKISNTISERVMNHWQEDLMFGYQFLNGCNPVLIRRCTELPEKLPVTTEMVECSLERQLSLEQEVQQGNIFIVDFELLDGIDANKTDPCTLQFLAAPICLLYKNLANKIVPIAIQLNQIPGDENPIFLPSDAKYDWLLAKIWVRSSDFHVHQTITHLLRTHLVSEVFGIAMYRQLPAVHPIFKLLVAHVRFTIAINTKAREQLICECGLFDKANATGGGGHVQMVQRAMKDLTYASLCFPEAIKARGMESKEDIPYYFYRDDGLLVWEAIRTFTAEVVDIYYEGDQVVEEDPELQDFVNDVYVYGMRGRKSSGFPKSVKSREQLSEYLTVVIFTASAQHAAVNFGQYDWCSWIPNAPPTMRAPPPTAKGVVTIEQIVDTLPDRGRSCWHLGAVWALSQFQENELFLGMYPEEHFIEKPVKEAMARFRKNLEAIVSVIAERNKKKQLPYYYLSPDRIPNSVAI
In words: 5-lipoxygenase activity (LTB4) in human peripheral blood mononuclear leukocytes (Assay 6). The format is cell-based. Conditions: human PBMLs, A23187 30 μM, read-out: Inhibition of 5-LO (%). The procedure, abridged:
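LTB4 in supernatant quantified by EIA after 15 min at 37° C. in HBSS, pH 7.4, where Ficoll-isolated human PBMLs (5×10^6) received ionophore A23187 (30 μM) and test compound (3 and 30 μM) or 0.1% DMSO vehicle.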

Series [4] deals with IL-1α-induced PGE2 release. As to the kind of experiment: IL-1α-induced PGE2 release in human diploid lung fibroblasts (WI-38) (Assay 5). The format is cell-based. As to conditions: Homo sapiens, WI-38 cells, IL-1α 1 nM, overnight. The essentials: (§2)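 Cell viability was read by Alamar Blue fluorescence (530/590 nm) after 4 h at 37 °C, following an overnight 37 °C incubation of human lung fibroblasts with 1 nM IL-1α and compound (3 or 30 μM) in 10% FBS MEM, pH 7.3. Supernatant PGE2 was measured by radioimmunoassay to derive percent inhibition.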

Series [5] concerns 5-HT-induced contractions in guinea pig ileum. As to the kind of experiment: Inhibition of 5-HT-induced contractions in guinea pig ileum (Assay 3). As to conditions: Cavia porcellus, 5-HT 2.6 μM, read-out: Inhibition of 5-HT-induced contraction (%). The procedure, abridged: as §1
The next series concerns WI-38 cells. In words: Viability of WI-38 cells, Alamar Blue (Assay 5). The format is cell-based, human. The essentials: as §2
Series [6] relates to α-smooth muscle actin (α-SMA) mRNA. As to the kind of experiment: Anti-remodelling activity in human lung fibroblasts (HFL1): TGFβ-induced α-SMA mRNA (Assay 4). Format: cell-based. As to conditions: Homo sapiens, HFL1 cells, TGFβ 10 ng/ml, 24 h, read-out: Inhibition of α-SMA mRNA synthesis (%). The essentials: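 Real-time RT-PCR of α-SMA mRNA, GAPDH as reference, measured after 24 h exposure of low-serum-primed HFL1 cells to 10 ng/ml TGFβ with test compounds (3 and 30 μM) in 10% FBS medium. Readout is inhibition of TGFβ-driven α-SMA mRNA overexpression.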

`COc1cc(CCC(=O)CC(=O)CC(C)(C)C)ccc1O` [Compound 3, 7,7-Dimethyl-1-(4-hydroxy-3-methoxyphenyl)-octane-3,5-dione]: the Emax at TRPV1 receptor [1] came out at 63%.

For the compound `COc1cc(CCC(=O)CC(=O)C2CCCC2)ccc1O` [Compound 8, 1-Cyclopentyl-5-(4-hydroxy-3-methoxyphenyl)-pentane-1,3-dione], at TRPV1 receptor [1], the Emax came out at 36%.

Take `COc1cc(CCC(=O)CC(=O)C2(C)CCCCC2)ccc1O` [Compound 10, 5-(4-Hydroxy-3-methoxy-phenyl)-1-(1-methyl-cyclohexyl)-pentane-1,3-dione]: on TRPV1 receptor [1], the Emax was determined as 16%.

One may read the melting point as the temperature of the solid-liquid transition. For the compound `COc1cc(CCC(=O)CC(=O)c2ccc(-c3ccccc3)cc2)ccc1O` [Compound 18, 1-(Biphenyl-4-yl)-5-(4-hydroxy-3-methoxyphenyl)-pentane-1,3-dione], the melting point was 118 to 119 °C. Moreover, in series [2], the inhibition at 3 µM is 0% and the inhibition at 30 µM was found to be 7%. At TRPV1 receptor [3], the inhibition at 3 µM came out at 10%, the inhibition at 30 µM is -12%, the Emax at 3 µM is 146% and the Emax at 30 µM turned out to be 146%. In addition, at 5-lipoxygenase, the inhibition at 3 µM stood at 58% and the inhibition at 30 µM is 94%. For the same compound, in [4], the inhibition at 3 µM came out at 86% and the inhibition at 30 µM was determined as 99%. Moreover, in series [5], the inhibition at 3 µM is 0% and the inhibition at 30 µM turned out to be 3%. Moreover, the “Decrease in cell viability (%)” value in the series with WI-38 cells (3 μM) amounted to 3%. Further, in the series with WI-38 cells (30 μM), the “Decrease in cell viability (%)” value is reported as 15%. Also, in series [6], the inhibition at 3 µM is 13% and the inhibition at 30 µM is 79%.

As to `COc1cc(CCC(=O)CC(=O)c2ccc3ccccc3c2)ccc1O` [Compound 26, 5-(4-Hydroxy-3-methoxyphenyl)-1-(naphthalene-2-yl)-pentane-1,3-dione], the melting point fell in the range of 101 to 102 °C. Further, in series [2], the inhibition at 3 µM is 3% and the inhibition at 30 µM is 34%. For the same compound, at TRPV1 receptor [3], the inhibition at 3 µM amounted to 47%, the inhibition at 30 µM is -31%, the Emax at 3 µM is 66% and the Emax at 30 µM was 248%. For the same compound, at 5-lipoxygenase, the inhibition at 3 µM was 60% and the inhibition at 30 µM was determined as 98%. In series [4], the inhibition at 3 µM was determined as 81% and the inhibition at 30 µM is 100%. For the same compound, in series [5], the inhibition at 3 µM was found to be 7% and the inhibition at 30 µM was determined as 40%. The “Decrease in cell viability (%)” value with WI-38 cells (3 μM) turned out to be 3%. Moreover, the “Decrease in cell viability (%)” value in the series on WI-38 cells (30 μM) turned out to be 10%. In [6], the inhibition at 3 µM amounted to 2% and the inhibition at 30 µM was 64%.

As to `COc1cc(/C=C/C(=O)CC(=O)C(C)C)ccc1O` [Compound 33, (E)-1-(4-Hydroxy-3-methoxyphenyl)-6-methyl-hept-1-ene-3,5-dione], the Emax at TRPV1 receptor [1] is -12%.

As to `COc1cc(/C=C/C(=O)CC(=O)C(C)(C)C)ccc1O` [Compound 34, (E)-1-(4-Hydroxy-3-methoxylphenyl)-6,6-dimethyl-hept-1-ene-3,5-dione], the inhibition at 3 µM turned out to be 11% in [2], 72% in [4] and 2% in series [5]. Moreover, the inhibition at 30 µM in [2] came to 22%; in [4], 109%; in series [5], 43%. In addition, the Emax at TRPV1 receptor [1] is -15%. The “Decrease in cell viability (%)” value is 3% in the series with WI-38 cells (3 μM) and 5% in the series on WI-38 cells (30 μM).

On to `COc1cc(/C=C/C(=O)CC(=O)CC(C)(C)C)ccc1O` [Compound 35, (E)-7,7-Dimethyl-1-(4-hydroxy-3-methoxyphenyl)-oct-1-ene-3,5-dione], for which the melting point was 130 to 132 °C. The Emax on TRPV1 receptor [1] was found to be 25%.

In turn, `COc1cc(/C=C/C(=O)CC(=O)C2(C)CC2)ccc1O` [Compound 38, (E)-5-(4-Hydroxy-3-methoxylphenyl)-1-(1-methylcyclopropyl)-pent-4-ene-1,3-dione] showed a melting point of 78 to 80 °C. In addition, at TRPV1 receptor [1], the Emax is -36%.

For `COc1cc(/C=C/C(=O)CC(=O)C2CCCC2)ccc1O` [Compound 40, (E)-1-Cyclopentyl-5-(4-hydroxy-3-methoxyphenyl)-pent-4-ene-1,3-dione], the Emax at TRPV1 receptor [1] was -82%.

Take `COc1cc(/C=C/C(=O)CC(=O)C2(C)CCCCC2)ccc1O` [Compound 42, (E)-5-(4-Hydroxy-3-methoxyphenyl)-1-(1-methylcyclohexyl)-pent-4-ene-1,3-dione]: the Emax on TRPV1 receptor [1] turned out to be 6%.

With `COc1cc(/C=C/C(=O)C(C)C(=O)c2ccccc2)ccc1O` (centres unmarked) [Compound 43, (E)-5-(4-Hydroxy-3-methoxyphenyl)-2-methyl-1-phenyl-pent-4-ene-1,3-dione], the Emax at TRPV1 receptor [1] is -13%.

In turn, `COc1cc(/C=C/C(=O)CC(=O)c2ccccc2)ccc1O` [Compound 68, (E)-5-(4-Hydroxy-3-methoxyphenyl)-1-phenyl-pent-4-ene-1,3-dione] yielded a melting point of 159 to 161.5 °C. Besides, the Emax on TRPV1 receptor [1] stood at 14%.
